From patent publication US8673894B2 (Hoffmann-La Roche Inc., priority 2010, dated 2014)

Assays:
[1] = target: T1, endogenous cellular BACE2 (Rattus norvegicus, UniProt Q6IE75); experiment: Assay for BACE inhibition by measuring cellular TMEM27 cleavage; type: cell-based; conditions: INS-TMEM27 (INS1e-derived) cells, shed human TMEM27 in supernatant by ELISA
T1 construct: endogenous cellular BACE2 in the Ins1e rat cell line; endogenous in cells; host or cells: INS-TMEM27 (INS1e-derived rat insulinoma cell line with doxycycline-inducible full-length human TMEM27)
T1 sequence (Q6IE75 63-514): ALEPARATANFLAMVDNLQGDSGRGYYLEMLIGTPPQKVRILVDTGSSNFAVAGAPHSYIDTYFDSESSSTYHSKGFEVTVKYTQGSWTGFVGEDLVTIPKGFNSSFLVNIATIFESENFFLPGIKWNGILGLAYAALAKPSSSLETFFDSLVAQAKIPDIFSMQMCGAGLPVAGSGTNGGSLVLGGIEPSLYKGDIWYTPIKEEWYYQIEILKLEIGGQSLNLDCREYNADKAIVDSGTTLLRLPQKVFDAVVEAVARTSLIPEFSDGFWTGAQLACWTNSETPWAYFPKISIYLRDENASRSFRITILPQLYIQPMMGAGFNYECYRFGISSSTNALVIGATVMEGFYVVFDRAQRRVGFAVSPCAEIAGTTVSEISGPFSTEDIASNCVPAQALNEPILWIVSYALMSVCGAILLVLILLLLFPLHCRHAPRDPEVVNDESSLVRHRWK
In short: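 INS1e rat cells with doxycycline-inducible human TMEM27 get inhibitor 2 h before doxycycline (500 ng/ml final), then 46 h further at 37° C. Shed TMEM27 in the supernatant is measured by sandwich ELISA, and the EC50 comes from a curve fit of the ELISA signal.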

[2] = tested on: Aβ40; experiment: Cellular Aβ-lowering assay; type: cell-based; conditions: HEK293 cells stably expressing human APP695, Aβ40 in supernatant by ELISA after 18-20 hrs; read-out: Cellular assay Abeta40 IC50
In short: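 HEK293 cells stably expressing human wild-type APP695 were treated with compound for 18-20 h at 37 °C in 0.8% v/v DMSO. Secreted Aβ40 in the supernatant was measured by sandwich ELISA (Aβ40 C-terminus-specific capture, HRP-4G8 detection, TMB read at 450 nm) and quantified against a pure Aβ peptide standard curve.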

Row | IC50 [1] [nM] | IC50 [2] [nM] | SMILES
1 | 129 | 69 | C[C@]1(c2cc(NC(=O)c3ncccc3OCC(F)(F)F)ccc2F)N=C(N)COC[C@@H]1F [Example 112, N-(3-((5R,6R)-3-amino-6-fluoro-5-methyl-2,5,6,7-tetrahydro-1,4-oxazepin-5-yl)-4-fluorophenyl)-3-(2,2,2-trifluoroethoxy)picolinamide]
2 | 123 | 35.8 | Cc1nc(C(=O)Nc2ccc(F)c([C@@]3(C)N=C(N)COCC3(F)F)c2)c(C(F)(F)F)o1 [Example 113, (R)-N-(3-(3-Amino-6,6-difluoro-5-methyl-2,5,6,7-tetrahydro-1,4-oxazepin-5-yl)-4-fluorophenyl)-2-methyl-5-(trifluoromethyl)oxazole-4-carboxamide]
3 | 6 | 3.8 | C[C@]1(c2cc(NC(=O)c3nn(C(F)F)cc3Cl)ccc2F)N=C(N)COC[C@@H]1F [Example 115, N-(3-((5R,6R)-3-Amino-6-fluoro-5-methyl-2,5,6,7-tetrahydro-1,4-oxazepin-5-yl)-4-fluorophenyl)-4-chloro-1-(difluoromethyl)-1H-pyrazole-3-carboxamide]

Second part, the molecule before the results:

Row | SMILES | IC50 [1] [nM] | IC50 [2] [nM]
4 | C[C@]1(c2cc(NC(=O)c3nn(C(F)F)cc3Cl)ccc2F)N=C(N)COCC1(F)F [Example 114, (R)-N-(3-(3-Amino-6,6-difluoro-5-methyl-2,5,6,7-tetrahydro-1,4-oxazepin-5-yl)-4-fluorophenyl)-4-chloro-1-(difluoromethyl)-1H-pyrazole-3-carboxamide] | 9.68 | 4.9
5 | CC[C@]1(c2cc(NC(=O)c3nn(C(F)F)cc3Cl)ccc2F)N=C(N)COCC1(F)F [Example 116, (R)-N-(3-(3-Amino-5-ethyl-6,6-difluoro-2,5,6,7-tetrahydro-1,4-oxazepin-5-yl)-4-fluorophenyl)-4-chloro-1-(difluoromethyl)-1H-pyrazole-3-carboxamide] | 189 | 20
6 | CC1(C)OCC(N)=N[C@](C)(c2cc(NC(=O)c3ccc(C#N)cn3)c(F)cc2F)C1(F)F [Example 117, (R)-N-(5-(3-amino-6,6-difluoro-5,7,7-trimethyl-2,5,6,7-tetrahydro-1,4-oxazepin-5-yl)-2,4-difluorophenyl)-5-cyanopicolinamide] | 30000 | 34
7 | CC1(C)OCC(N)=N[C@](C)(c2cc(NC(=O)c3ccc(Cl)cn3)c(F)cc2F)C1(F)F [Example 118, (R)-N-(5-(3-amino-6,6-difluoro-5,7,7-trimethyl-2,5,6,7-tetrahydro-1,4-oxazepin-5-yl)-2,4difluorophenyl)-5-chloropicolinamide] | 14800 | 340
8 | CC[C@]1(c2cc(NC3CCCC3)ccc2F)N=C(N)COCC1(F)F [Example 119, (R)-5-(5-(Cyclopentylamino)-2-fluorophenyl)-5-ethyl-6,6-difluoro-2,5,6,7-tetrahydro-1,4-oxazepin-3-amine] | 9.03 | 0.8
